Measured values taken from patent publication US20110124607A1, “COMPOSITION FOR REGULATION CELLULAR SENESCENCE COMPRISING LYSOPHOSPHATIDIC ACID AND INHIBITOR OF ADENYLYL CYCLASE AS ACTIVE INGREDIENTS” (priority 2008, published 2011).

Tested on: senescent cells (human fibroblasts)
Test: Cell cycle analysis by flow cytometry (S phase entry), senescent cells
Type: cell-based
Conditions: 30 μM LPA, 300 μM ACI, 1, 2, 4 days
Description: At this time, cell numbers regarded as significant compared with that of the control were presented in (A) and (B) (p<0.001). Cell cycle in (C) was analysed by flow cytometry. The percentage of cells entered S phase was averaged of three repeated measurements (p<0.001). Young and senescent cells were treated with 30 μM of LPA, 300 μM of ACI, LPA+ACI, 10 mM of AMPKI or 10 mM of AICAR, followed by culture for 1, 2, and 4 days. To analyze cell cycle, the cells were washed with buffer twice and then the cells were centrifuged using 0.25% trypsin, followed by fixation in cold 70% ethanol. Analysis was performed by flow cytometry (Becton Dickinson FACSorter) using […] of PI containing RNase. Cell proliferation and cAMP level were increased by LPA in senescent cells (Yeo et al., 2002). The AC inhibitor (ACI) was added to reduce cAMP which had been increased by LPA. And then, cell proliferation was investigated. Cells were cultured in serum-free medium for 2 days to arrest them in G0/G1 phase. Then, the cells were treated with LPA, ACI or LPA+ACI. Total cell number was measured on day 1, day 2 and day 4, or the cells entered into S phase were counted to evaluate cell proliferation. When young cells were treated with 300 μM of ACI, cell proliferation was reduced, compared with control (FIG. 1A). […]

## Nc1ncnc2c1ncn2C1CCCO1 (stereo not shown) [ACI, 9-(tetrahydro-2′-furyl)adenine]
  cell number entered into S phase: increased
